{"source": "paper PMC8371461", "about": "(Frontiers in Pharmacology, 2021)", "key": {"PKN1": {"biological_target": "T1, PKN1 (Homo sapiens, UniProt Q16512)", "T1 construct": "purchased DiscoverX (KINOMEscan)", "test": "kinome scan", "format": "binding", "conditions": "10 µM"}, "CGR8 PSC": {"tested_on": "CGR8 PSC", "test": "ATP quantification (ATPlite), cell proliferation/viability", "format": "cell-based, mouse", "conditions": "PSC exposed for three days", "experimental": "Cell viability was measured in PSC by using the ATPlite Luminescence Assay System (Perkin Elmer). PSC were plated in gelatine-coated 96-well plates at a density of 10,000 cells-cm^2 in their standard medium. At different time points, the substrate for emission of luminescence in the presence of ATP was added according to the manufacturer’s instructions. Luminescence was measured with the SpectraMax L Microplate Luminometer (Molecular Devices).\nThe effects of the drug on proliferation or differentiation was next investigated in quantitative assays."}, "PIK3CA(E542K)": {"biological_target": "T2, PIK3CA(E542K) (Homo sapiens, UniProt P42336, E542K)", "T2 construct": "purchased DiscoverX (KINOMEscan)", "test": "kinome scan", "format": "binding", "conditions": "10 µM"}, "PRKCE": {"biological_target": "T3, PRKCE (Homo sapiens, UniProt Q02156)", "T3 construct": "purchased DiscoverX (KINOMEscan)", "test": "kinome scan", "format": "binding", "conditions": "10 µM"}, "MTOR": {"biological_target": "T4, MTOR (Homo sapiens, UniProt P42345)", "T4 construct": "purchased DiscoverX (KINOMEscan)", "test": "kinome scan", "format": "binding", "conditions": "10 µM"}, "PCTK2": {"biological_target": "T5, PCTK2 (Homo sapiens, UniProt Q00537)", "T5 construct": "purchased DiscoverX (KINOMEscan)", "test": "kinome scan", "format": "binding", "conditions": "10 µM"}, "CDC2L1": {"biological_target": "T6, CDC2L1 (Homo sapiens, UniProt P21127)", "T6 construct": "purchased DiscoverX (KINOMEscan)", "test": "kinome scan", "format": "binding", "conditions": "10 µM"}, "BIKE": {"biological_target": "T7, BIKE (Homo sapiens, UniProt Q9NSY1)", "T7 construct": "purchased DiscoverX (KINOMEscan)", "test": "kinome scan", "format": "binding", "conditions": "10 µM"}, "DMPK2": {"biological_target": "T8, DMPK2 (Homo sapiens, UniProt Q6DT37)", "T8 construct": "purchased DiscoverX (KINOMEscan)", "test": "kinome scan", "format": "binding", "conditions": "10 µM"}, "PFTK1": {"biological_target": "T9, PFTK1 (Homo sapiens, UniProt O94921)", "T9 construct": "purchased DiscoverX (KINOMEscan)", "test": "kinome scan", "format": "binding", "conditions": "10 µM"}, "CLK4": {"biological_target": "T10, CLK4 (Homo sapiens, UniProt Q9HAZ1)", "T10 construct": "purchased DiscoverX (KINOMEscan)", "test": "kinome scan", "format": "binding", "conditions": "10 µM"}, "PIK3CB": {"biological_target": "T11, PIK3CB (Homo sapiens, UniProt P42338)", "T11 construct": "purchased DiscoverX (KINOMEscan)", "test": "kinome scan", "format": "binding"}, "TAOK1": {"biological_target": "T12, TAOK1 (Homo sapiens, UniProt Q7L7X3)", "T12 construct": "purchased DiscoverX (KINOMEscan)", "test": "kinome scan", "format": "binding", "conditions": "10 µM"}, "TRKA": {"biological_target": "T13, TRKA (Homo sapiens, UniProt P04629)", "T13 construct": "purchased DiscoverX (KINOMEscan)", "T13 sequence (P04629 33-796)": "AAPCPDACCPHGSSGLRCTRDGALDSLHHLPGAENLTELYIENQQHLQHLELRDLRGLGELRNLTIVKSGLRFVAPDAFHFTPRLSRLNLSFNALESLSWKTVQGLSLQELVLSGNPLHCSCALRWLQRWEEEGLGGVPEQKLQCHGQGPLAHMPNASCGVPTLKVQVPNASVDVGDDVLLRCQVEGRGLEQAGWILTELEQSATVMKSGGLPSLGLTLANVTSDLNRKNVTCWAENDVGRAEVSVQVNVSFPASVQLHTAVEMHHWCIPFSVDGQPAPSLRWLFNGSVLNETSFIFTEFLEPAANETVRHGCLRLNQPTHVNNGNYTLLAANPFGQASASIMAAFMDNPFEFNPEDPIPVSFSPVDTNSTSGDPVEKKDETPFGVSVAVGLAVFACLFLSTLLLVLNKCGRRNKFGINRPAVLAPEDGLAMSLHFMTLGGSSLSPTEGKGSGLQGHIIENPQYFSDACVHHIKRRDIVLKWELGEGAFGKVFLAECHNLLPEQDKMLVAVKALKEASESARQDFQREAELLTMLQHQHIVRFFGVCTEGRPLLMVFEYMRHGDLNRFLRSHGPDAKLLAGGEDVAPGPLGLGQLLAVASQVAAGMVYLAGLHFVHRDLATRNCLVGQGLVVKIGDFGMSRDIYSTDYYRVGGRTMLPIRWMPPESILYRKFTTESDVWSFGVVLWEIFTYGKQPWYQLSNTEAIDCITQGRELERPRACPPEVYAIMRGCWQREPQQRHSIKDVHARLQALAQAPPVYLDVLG", "test": "kinome scan", "format": "binding", "conditions": "10 µM"}, "[1]": {"tested_on": "Estrogen receptor alpha signaling", "design": "method as in CHEMBL1794542", "conditions": "reported activity, data mining; ref CHEMBL1794542; cited from earlier work"}, "GSK3A": {"biological_target": "T14, GSK3A (Homo sapiens, UniProt P49840)", "T14 construct": "purchased DiscoverX (KINOMEscan)", "test": "kinome scan", "format": "binding", "conditions": "10 µM"}, "ERBB2": {"biological_target": "T15, ERBB2 (Homo sapiens, UniProt P04626)", "T15 construct": "purchased DiscoverX (KINOMEscan)", "T15 sequence (P04626 23-1255)": "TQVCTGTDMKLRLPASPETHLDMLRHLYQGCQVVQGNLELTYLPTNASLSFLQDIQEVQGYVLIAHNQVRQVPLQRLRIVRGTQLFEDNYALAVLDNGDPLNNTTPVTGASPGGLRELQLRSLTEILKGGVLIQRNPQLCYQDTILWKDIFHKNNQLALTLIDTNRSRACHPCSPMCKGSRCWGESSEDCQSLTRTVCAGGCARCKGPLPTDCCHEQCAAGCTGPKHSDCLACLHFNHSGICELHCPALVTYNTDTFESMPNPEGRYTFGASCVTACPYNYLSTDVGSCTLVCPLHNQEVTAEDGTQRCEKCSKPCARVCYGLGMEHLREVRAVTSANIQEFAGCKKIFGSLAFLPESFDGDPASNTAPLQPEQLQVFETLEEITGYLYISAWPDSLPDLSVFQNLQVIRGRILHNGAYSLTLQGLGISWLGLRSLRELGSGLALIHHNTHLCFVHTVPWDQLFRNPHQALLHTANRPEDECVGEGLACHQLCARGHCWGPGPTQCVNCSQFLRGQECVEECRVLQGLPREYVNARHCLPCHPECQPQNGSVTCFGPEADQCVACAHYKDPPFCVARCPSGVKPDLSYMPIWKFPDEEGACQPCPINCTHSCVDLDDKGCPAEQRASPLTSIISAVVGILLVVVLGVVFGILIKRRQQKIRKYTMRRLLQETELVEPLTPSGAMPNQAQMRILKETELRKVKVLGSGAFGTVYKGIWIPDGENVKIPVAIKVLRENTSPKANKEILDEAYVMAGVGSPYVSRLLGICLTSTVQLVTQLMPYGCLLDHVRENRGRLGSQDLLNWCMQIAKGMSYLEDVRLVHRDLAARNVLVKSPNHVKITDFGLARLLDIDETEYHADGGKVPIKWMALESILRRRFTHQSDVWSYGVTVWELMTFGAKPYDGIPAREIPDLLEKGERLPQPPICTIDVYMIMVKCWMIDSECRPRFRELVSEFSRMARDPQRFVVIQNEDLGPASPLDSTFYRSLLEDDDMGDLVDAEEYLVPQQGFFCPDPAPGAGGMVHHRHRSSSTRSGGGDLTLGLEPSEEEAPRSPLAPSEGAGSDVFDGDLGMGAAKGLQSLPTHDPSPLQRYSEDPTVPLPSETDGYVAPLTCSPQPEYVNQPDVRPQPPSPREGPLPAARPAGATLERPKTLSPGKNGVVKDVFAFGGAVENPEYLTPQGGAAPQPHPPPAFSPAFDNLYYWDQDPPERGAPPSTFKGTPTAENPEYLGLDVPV", "test": "kinome scan", "format": "binding", "conditions": "10 µM"}, "CSNK1D": {"biological_target": "T16, CSNK1D (Homo sapiens, UniProt P48730)", "T16 construct": "purchased DiscoverX (KINOMEscan)", "test": "kinome scan", "format": "binding", "conditions": "10 µM"}, "PIK3CA(M1043I)": {"biological_target": "T17, PIK3CA(M1043I) (Homo sapiens, UniProt P42336, M1043I)", "T17 construct": "purchased DiscoverX (KINOMEscan)", "T17 sequence (P42336 whole entry M1043I)": "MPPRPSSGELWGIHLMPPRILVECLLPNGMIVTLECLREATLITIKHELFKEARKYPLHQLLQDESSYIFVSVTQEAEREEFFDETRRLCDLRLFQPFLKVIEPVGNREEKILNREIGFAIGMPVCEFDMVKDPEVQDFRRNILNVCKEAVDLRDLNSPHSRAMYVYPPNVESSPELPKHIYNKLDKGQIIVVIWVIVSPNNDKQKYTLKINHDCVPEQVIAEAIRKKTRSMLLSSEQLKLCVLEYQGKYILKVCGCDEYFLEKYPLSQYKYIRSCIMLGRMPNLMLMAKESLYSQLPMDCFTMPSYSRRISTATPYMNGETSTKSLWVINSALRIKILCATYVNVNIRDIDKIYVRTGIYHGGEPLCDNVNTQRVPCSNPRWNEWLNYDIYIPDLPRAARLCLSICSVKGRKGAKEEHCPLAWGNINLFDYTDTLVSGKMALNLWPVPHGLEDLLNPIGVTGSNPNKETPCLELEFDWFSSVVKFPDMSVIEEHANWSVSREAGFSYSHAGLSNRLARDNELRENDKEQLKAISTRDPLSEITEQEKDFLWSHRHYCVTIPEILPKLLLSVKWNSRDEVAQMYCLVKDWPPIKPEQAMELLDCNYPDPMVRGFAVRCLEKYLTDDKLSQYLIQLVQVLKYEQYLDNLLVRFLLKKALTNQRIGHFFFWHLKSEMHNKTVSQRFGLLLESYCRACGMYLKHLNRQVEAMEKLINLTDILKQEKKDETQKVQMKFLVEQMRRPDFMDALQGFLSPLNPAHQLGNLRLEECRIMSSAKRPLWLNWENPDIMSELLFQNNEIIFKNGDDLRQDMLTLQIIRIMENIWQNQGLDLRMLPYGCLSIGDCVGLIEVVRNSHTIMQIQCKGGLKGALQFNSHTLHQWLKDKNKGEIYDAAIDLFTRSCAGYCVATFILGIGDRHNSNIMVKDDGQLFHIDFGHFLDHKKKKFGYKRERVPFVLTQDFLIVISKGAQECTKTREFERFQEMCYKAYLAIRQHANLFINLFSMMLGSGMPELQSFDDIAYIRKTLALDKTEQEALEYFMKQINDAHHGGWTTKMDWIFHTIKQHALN", "test": "kinome scan", "format": "binding", "conditions": "10 µM"}, "KIT(V559DT670I)": {"biological_target": "T18, KIT(V559DT670I) (Homo sapiens, UniProt P10721, T670I/V559D)", "T18 construct": "purchased DiscoverX (KINOMEscan)", "T18 sequence (P10721 544-976 V559D/T670I limits assumed)": "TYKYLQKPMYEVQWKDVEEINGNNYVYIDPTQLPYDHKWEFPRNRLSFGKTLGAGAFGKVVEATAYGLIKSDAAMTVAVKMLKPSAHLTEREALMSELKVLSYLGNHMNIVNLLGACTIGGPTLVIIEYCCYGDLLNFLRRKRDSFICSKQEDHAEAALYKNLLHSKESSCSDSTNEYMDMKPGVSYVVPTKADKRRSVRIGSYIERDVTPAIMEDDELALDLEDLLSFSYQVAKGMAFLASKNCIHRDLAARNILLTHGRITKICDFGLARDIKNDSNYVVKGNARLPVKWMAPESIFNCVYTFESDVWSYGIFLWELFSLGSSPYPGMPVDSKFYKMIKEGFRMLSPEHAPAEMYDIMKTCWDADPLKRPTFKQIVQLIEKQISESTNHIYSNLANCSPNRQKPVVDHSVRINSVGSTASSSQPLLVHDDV", "test": "kinome scan", "format": "binding", "conditions": "10 µM"}, "[2]": {"biological_target": "T19, ABL1(Y253F)-phosphorylated (Homo sapiens, UniProt P00519, Y253F)", "T19 construct": "purchased DiscoverX (KINOMEscan)", "test": "kinome scan", "format": "binding", "conditions": "10 µM"}, "ALK": {"biological_target": "T20, ALK (Homo sapiens, UniProt Q9UM73)", "T20 construct": "purchased DiscoverX (KINOMEscan)", "T20 sequence (Q9UM73 19-1620)": "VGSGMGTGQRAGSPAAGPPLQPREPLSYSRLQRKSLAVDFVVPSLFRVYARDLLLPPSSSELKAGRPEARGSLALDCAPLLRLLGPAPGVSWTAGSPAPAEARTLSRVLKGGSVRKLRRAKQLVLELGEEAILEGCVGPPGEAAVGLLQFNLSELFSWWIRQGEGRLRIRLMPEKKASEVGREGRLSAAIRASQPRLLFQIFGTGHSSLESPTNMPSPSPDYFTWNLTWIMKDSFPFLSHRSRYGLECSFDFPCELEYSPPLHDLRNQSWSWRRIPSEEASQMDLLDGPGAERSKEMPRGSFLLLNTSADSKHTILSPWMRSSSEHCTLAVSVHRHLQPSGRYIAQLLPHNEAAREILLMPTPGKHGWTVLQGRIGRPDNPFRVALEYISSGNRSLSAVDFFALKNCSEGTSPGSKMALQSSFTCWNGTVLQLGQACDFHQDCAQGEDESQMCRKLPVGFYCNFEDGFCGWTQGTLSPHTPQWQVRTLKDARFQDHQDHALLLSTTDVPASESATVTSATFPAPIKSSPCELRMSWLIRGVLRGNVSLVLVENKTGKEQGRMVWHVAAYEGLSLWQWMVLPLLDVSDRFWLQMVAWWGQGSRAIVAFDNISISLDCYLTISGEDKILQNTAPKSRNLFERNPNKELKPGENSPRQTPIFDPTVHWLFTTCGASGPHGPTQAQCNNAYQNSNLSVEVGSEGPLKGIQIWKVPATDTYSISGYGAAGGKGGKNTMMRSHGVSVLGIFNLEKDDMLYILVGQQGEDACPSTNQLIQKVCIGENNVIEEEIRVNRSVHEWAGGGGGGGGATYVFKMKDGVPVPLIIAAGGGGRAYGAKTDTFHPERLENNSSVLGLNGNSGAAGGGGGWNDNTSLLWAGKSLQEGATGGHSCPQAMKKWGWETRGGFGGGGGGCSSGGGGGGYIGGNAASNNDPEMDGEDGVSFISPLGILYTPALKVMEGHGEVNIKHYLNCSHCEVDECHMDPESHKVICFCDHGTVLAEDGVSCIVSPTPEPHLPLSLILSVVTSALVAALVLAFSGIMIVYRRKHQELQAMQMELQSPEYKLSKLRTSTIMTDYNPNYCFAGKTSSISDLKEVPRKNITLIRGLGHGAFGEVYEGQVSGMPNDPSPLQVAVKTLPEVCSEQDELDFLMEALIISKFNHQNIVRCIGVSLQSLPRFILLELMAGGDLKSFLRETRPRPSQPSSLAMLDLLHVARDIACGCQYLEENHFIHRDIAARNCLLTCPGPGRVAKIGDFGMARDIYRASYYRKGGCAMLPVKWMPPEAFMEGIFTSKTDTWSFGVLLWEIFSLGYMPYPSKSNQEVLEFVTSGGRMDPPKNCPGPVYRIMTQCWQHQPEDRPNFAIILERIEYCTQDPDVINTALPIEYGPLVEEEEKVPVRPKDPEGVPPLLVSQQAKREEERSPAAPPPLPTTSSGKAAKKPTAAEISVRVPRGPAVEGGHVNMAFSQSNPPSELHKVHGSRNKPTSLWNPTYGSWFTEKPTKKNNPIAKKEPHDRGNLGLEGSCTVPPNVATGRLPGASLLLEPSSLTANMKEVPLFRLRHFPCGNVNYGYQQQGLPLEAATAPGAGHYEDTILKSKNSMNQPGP", "test": "kinome scan", "format": "binding", "conditions": "10 µM"}, "RIOK3": {"biological_target": "T21, RIOK3 (Homo sapiens, UniProt O14730)", "T21 construct": "purchased DiscoverX (KINOMEscan)", "test": "kinome scan", "format": "binding", "conditions": "10 µM"}, "FLT3(N841I)": {"biological_target": "T22, FLT3(N841I) (Homo sapiens, UniProt P36888, N841I)", "T22 construct": "purchased DiscoverX (KINOMEscan)", "test": "kinome scan", "format": "binding", "conditions": "10 µM"}, "NEK5": {"biological_target": "T23, NEK5 (Homo sapiens, UniProt Q6P3R8)", "T23 construct": "purchased DiscoverX (KINOMEscan)", "test": "kinome scan", "format": "binding", "conditions": "10 µM"}, "CSNK1E": {"biological_target": "T24, CSNK1E (Homo sapiens, UniProt P49674)", "T24 construct": "purchased DiscoverX (KINOMEscan)", "test": "kinome scan", "format": "binding", "conditions": "10 µM"}, "CHEK2": {"biological_target": "T25, CHEK2 (Homo sapiens, UniProt O96017)", "T25 construct": "purchased DiscoverX (KINOMEscan)", "test": "kinome scan", "format": "binding", "conditions": "10 µM"}, "STK35": {"biological_target": "T26, STK35 (Homo sapiens, UniProt Q8TDR2)", "T26 construct": "purchased DiscoverX (KINOMEscan)", "test": "kinome scan", "format": "binding", "conditions": "10 µM"}, "MKK7": {"biological_target": "T27, MKK7 (Homo sapiens, UniProt O14733)", "T27 construct": "purchased DiscoverX (KINOMEscan)", "test": "kinome scan", "format": "binding", "conditions": "10 µM"}, "[3]": {"biological_target": "T28, ABL1(F317L)-nonphosphorylated (Homo sapiens, UniProt P00519, F317L)", "T28 construct": "purchased DiscoverX (KINOMEscan)", "test": "kinome scan", "format": "binding", "conditions": "10 µM"}, "ROCK2": {"biological_target": "T29, ROCK2 (Homo sapiens, UniProt O75116)", "T29 construct": "purchased DiscoverX (KINOMEscan)", "test": "kinome scan", "format": "binding", "conditions": "10 µM"}, "ULK3": {"biological_target": "T30, ULK3 (Homo sapiens, UniProt Q6PHR2)", "T30 construct": "purchased DiscoverX (KINOMEscan)", "test": "kinome scan", "format": "binding", "conditions": "10 µM"}}, "data": [{"compound": "Nc1ccc(N=Nc2ccccc2)c(N)n1", "note": "[phenazopyridine, 2,6-diamino-3-(phenylazo)pyridine]", "values": [{"measurement": "kinase inhibition", "setting": "PKN1", "result": 100}, {"measurement": "ATP levels", "setting": "CGR8 PSC", "result": "unchanged"}, {"measurement": "kinase inhibition", "setting": "PIK3CA(E542K)", "result": 98}, {"measurement": "kinase inhibition", "setting": "PRKCE", "result": 100}, {"measurement": "kinase inhibition", "setting": "MTOR", "result": 74}, {"measurement": "kinase inhibition", "setting": "PCTK2", "result": 98}, {"measurement": "kinase inhibition", "setting": "CDC2L1", "result": 90}, {"measurement": "kinase inhibition", "setting": "BIKE", "result": 99}, {"measurement": "kinase inhibition", "setting": "DMPK2", "result": 100}, {"measurement": "kinase inhibition", "setting": "PFTK1", "result": 100}, {"measurement": "kinase inhibition", "setting": "CLK4", "result": 72}, {"measurement": "remaining binding (% of control)", "setting": "PIK3CB; 10 µM", "result": 22}, {"measurement": "remaining binding at 10 µM", "setting": "PIK3CB; read-out: % Of control", "result": 22, "unit": "%"}, {"measurement": "kinase inhibition", "setting": "TAOK1", "result": 93}, {"measurement": "kinase inhibition", "setting": "TRKA", "result": 100}, {"measurement": "Concentration", "setting": "[1]", "result": 3.1, "unit": "µM"}, {"measurement": "kinase inhibition", "setting": "GSK3A", "result": 100}, {"measurement": "kinase inhibition", "setting": "ERBB2", "result": 64}, {"measurement": "kinase inhibition", "setting": "CSNK1D", "result": 50}, {"measurement": "kinase inhibition", "setting": "PIK3CA(M1043I)", "result": 100}, {"measurement": "kinase inhibition", "setting": "KIT(V559DT670I)", "result": 71}, {"measurement": "kinase inhibition", "setting": "[2]", "result": 90}, {"measurement": "kinase inhibition", "setting": "ALK", "result": 89}, {"measurement": "remaining binding (% of control)", "setting": "RIOK3", "result": 100}, {"measurement": "remaining binding (% of control)", "setting": "FLT3(N841I)", "result": 46}, {"measurement": "kinase inhibition", "setting": "NEK5", "result": 100}, {"measurement": "kinase inhibition", "setting": "CSNK1E", "result": 44}, {"measurement": "kinase inhibition", "setting": "CHEK2", "result": 99}, {"measurement": "kinase inhibition", "setting": "STK35", "result": 93}, {"measurement": "kinase inhibition", "setting": "MKK7", "result": 100}, {"measurement": "kinase inhibition", "setting": "[3]", "result": 67}, {"measurement": "kinase inhibition", "setting": "ROCK2", "result": 89}, {"measurement": "kinase inhibition", "setting": "ULK3", "result": 100}]}]}
